The numbers were not newly measured in patent US6465495B1, “Preparation of pyridone-based phosphotyrosine mimetics and uses thereof” (OSI Pharmaceuticals, Inc., priority 1998, dated 2002), which cites them from elsewhere.

The conditions of the data set: literature values.

In the case of `N[C@@H](Cc1ccc(OP(=O)(O)O)cc1)C(=O)O` [pTyr], the pKA2 is listed as 5.7.
